Laboratory results as given in US10907219B2, “Compositions and methods for controlling cellular function” (STC.UNM, priority 2014, dated 2021).
Entries after “also recorded” stand apart in the source; their conditions may differ.

What was measured:
[1] = Photo-cleavage (uncaging) of caged ABA (HPLC); format: physicochemical; details: for formation of 2-trans ABA isomer on irradiation: 365 nm photo-cleavage condition; for photo-cleavage by 365 nm light / photo-cleavage by 405 nm light: 10 μM in DMSO
Procedure: HPLC analysis: Reversed-phase HPLC was performed on an ACCLAIM 120 (4.6×100 mm) C18 column (Thermo Fisher Scientific, Waltham, Mass.) with an ULTIMATE 3000 pump system, including a Variable Wavelength Detector 3100, Degasser 1210, and Autosampler SPS 3000 (Thermo Fisher Scientific, Waltham, Mass.). A mixture of water and acetonitrile containing 0.1% TFA was used as the eluent. Absorbance at 250 nm was used to monitor the elution of the molecules. The method used an increase in acetonitrile from 5% to 95% over 15 minutes to elute the molecules at a flow rate of 0.7 mL/min. The peaks for the molecules were integrated by using Chromeleon software (Thermo Fisher Scientific, Waltham, Mass.). The molar absorptivity of both free and caged ABA at 250 nm were measured, which was used to calculate the concentration of each species from the intensity of absorbance at 250 nm. The relative concentration of each compound was used to calculate the percent concentration of free ABA relative to the concentration of total ABA species (both caged and uncaged).
Photo-irradiation: Irradiation at 365 nm was performed with an Axio Observer (Carl Zeiss AG, Oberkochen, Germany) microscope with an HBO103 W/2 mercury arc lamp (Carl Zeiss AG, Oberkochen, Germany). Irradiation was performed by using a DAPI filter (Carl Zeiss AG, Oberkochen, Germany), set with peak excitation at 365 nm (power density: 23 mW cm^2) and a spectral width of 50 nm. No objective lens was used for whole-well irradiation, which created an area of illumination that nearly completely covered one well of a 24-well plate. Light was transmitted through the bottom of the well of polystyrene plate. Irradiation at 405 nm was performed by using an adjustable focus violet purple laser pointer (LazerPoint SKU 0733579), with an excitation wavelength of 405 nm and 1000 mW intensity positioned 8 cm above the bottom of either a 96-well or 24-well plate and irradiated through the polystyrene lid. All samples for HPLC analysis were irradiated in DMSO to prevent evaporation of solvent and changes in sample concentration. Irradiation of cell cultures was performed in 24-well plates containing culture medium (500 μL).

[2] = test system: myr-ABI and EGFP-PYL-Tiam1 in CHO cells; experiment: Light-induced ruffling via Tiam1 membrane localization / Rac1 signaling (fixed cells); format: cell-based; details: for percentage of cells displaying ruffling: compared with ABA-DMNB without irradiation or no drug
Excerpt: Next, we examined the induction of ruffle formation through the activation of the Rac1 signaling pathway in order to determine if the light-activated ABA system can be used to regulate a complex biological process. The GTP exchange factor, Tiam1, when presents at the cell membrane, activates Rac1 to initiate a signaling pathway that leads to cytoskeletal remodeling that forms filopodia and/or lamellipodia. To activate Rac1 signaling and induce membrane ruffling, light and ABA-DMNB were used to control membrane localization of Tiam1 (FIG. 23A). A construct encoding a membrane localized ABI (myr-ABI) and one expressing a constitutively active Tiam1 fused to EGFP and PYL were employed for this purpose (FIG. 23A). Following the transfection of CHO cells with both plasmids for 24 hours, 10 μM of ABA-DMNB was added and the treated cell culture was irradiated with 365 nm light from a fluorescent microscope. Cells were then fixed on slides and analyzed under a fluorescence microscope. […] Some background ruffling when overexpressing constitutively active Tiam1 was observed even when no drug was added.
Slide preparation: Cells were grown on glass coverslips in 24-well plates. The coverslips were washed with phosphate-buffered saline (PBS) and fixed with 4% paraformaldehyde (PFA, 300 μL, prepared in PBS) at room temperature for 20 min. The cells were then washed twice with PBS and incubated with 1×DAPI in the dark at the room temperature for 5 min. After a final wash with PBS, the coverslips were mounted on a glass slide with VECTASHIELD (Vector Laboratories, Inc., Burlingame, Calif.) mounting media and allowed to stand for two hours in the dark before imaging.
Statistical analysis of cell population: Cell were categorized as displaying nuclear export of EGFP when the fluorescent intensity of the nucleus was less than 60% of the intensity of the cytoplasm. […] Cells were counted from three separate experiments, with N>50 for each experiment.

[3] = test system: CHO cells transfected with ABA-inducible luciferase constructs; experiment: ABA-inducible luciferase assay; format: cell-based; details: for stability in cell culture: 12 or 24 h, luciferase assay
Procedure: The cellular stability of ABA-DMNB was explored further using a more sensitive and quantitative luciferase assay system, which employs an inducible luciferase construct (FIG. 21A). CHO cells were transfected with the ABA-inducible luciferase constructs for 24 hours and then 10 μM of ABA-DMNB was added and incubated in dark for 12 or 24 hours. Cells were then harvested and analyzed by using the luciferase assay.
Cell culture and transfection: CHO cells and HEK 293T EGFP reporter cells (provided by Dr. Gerald R. Crabtree) were cultured in Dulbecco's modified Eagle's medium (DMEM; GIBCO, Life Technologies, Carlsbad, Calif.) with 10% FBS (Atlanta Biologicals, Inc., Norcross, Ga.), 1×GlutaMAX (GIBCO, Life Technologies, Carlsbad, Calif.), and 1× penicillin/streptomycin (Pen/Strep; GIBCO, Life Technologies, Carlsbad, Calif.). 15,000-50,000 ells were plated in a 24-well or 8-well plate for 24 hours before transfection. DNA constructs (0.1 μg-0.5 μg) were added to 50× (v/w) Opti-MEM (GIBCO, Life Technologies, Carlsbad, Calif.), and then 3× (v/w) PEI (Polysciences, Inc., Warrington, Pa.) was mixed with the DNA. The mixture was incubated for 20 minutes at room temperature before adding it to cell cultures. The cells were grown for one day after transfection before experiments were performed.
Luciferase assay: Cells from 24-well plates were washed with PBS and lysed with Reporter lysis buffer (100 μL; Promega Corp., Madison, Wis.) by incubation and gentle shaking at room temperature for 10 minutes after a freeze/thaw cycle. Cell lysates were centrifuged at 15,000 rpm in an Eppendorf 5424 Centrifuge with lysate used for the luciferase assay (25 μL). Luciferase assay reagent (100 μL, 5 mg luciferin (Gold Biotechnology, Inc., St. Louis, Mo.) and coenzyme A (7 mg; Sigma-Aldrich, St. Louis, Mo.) in Luciferase Assay Buffer (33 mL, 20 mM tricine, 1.07 mM (MgCO3)4Mg(OH)2.5 H2O, 2.67 mM MgSO4, 0.1 mM EDTA, 33.3 mM dithiothreitol, and 0.53 mM ATP in water) was added to lysates. Luciferase assay reagent was added through the auto-injector of a GLOMAX-Multi Detection System (Promega Corp., Madison, Wis.), and the signal was detected by the instrument with a 1.5 s delay and 0.5 s integration time. All experiments were conducted in triplicate.

Structure (SMILES) | formation of 2-trans ABA isomer on irradiation [1] | percentage of cells displaying ruffling ([2]; not irradiated) | luciferase expression ([3]; not irradiated, twelve hours after addition) | photo-cleavage by 365 nm light [1] | photo-cleavage by 405 nm light [1] | irradiation time to complete cleavage ([1]; 405 nm light) | formation of isomerized ABA on irradiation ([1]; 405 nm uncaging) | Rac1 signaling activation/ruffle formation ([2]; 10 μM, 405 nm light irradiation, fixed CHO cells) | stability in cell culture ([3]; 10 μM, dark) | irradiation time after which free ABA is regenerated ([1]; 10 μM and 100 μM, 365 nm UV light) | irradiation time to regenerate free ABA ([1]; 100 μM, 365 nm light) | percentage of cells displaying ruffling ([2]; 10 μM, 365 nm irradiation) | luciferase expression ([3]; 10 μM, dark, 12 hours) | luciferase expression ([3]; 10 μM, dark, 24 hours)
CC1=CC(=O)CC(C)(C)C1(O)/C=C/C(C)=C\C(=O)O (stereo not drawn) [ABA, abscisic acid, reference compound] | very little 2-trans isomer was produced | higher percentage of ruffled cell; also recorded: greater percentage of cells displaying ruffling | induced luciferase expression |  |  |  |  |  |  |  |  |  |  | 
CCN(CC)c1ccc2c(COC(=O)/C=C(C)\C=C\[C@@]3(O)C(C)=CC(=O)CC3(C)C)cc(=O)oc2c1 [ABA-DEACM] |  |  |  | cannot be cleaved effectively under 365 nm light; also recorded: cannot be cleaved efficiently by 365 nm light | cleaved rapidly to give ABA within a few minutes | ≤ 4 min | isomerized ABA was also produced | Rac1 signaling activation/ruffle formation in cells | stable chemically and in cell culture |  |  |  |  | 
COc1cc(COC(=O)/C=C(C)\C=C\[C@@]2(O)C(C)=CC(=O)CC2(C)C)c([N+](=O)[O-])cc1OC [ABA-DMNB] | near equal amount |  |  | rapidly regenerated from the photo-uncaging of ABA-DMNB within a min | cannot efficiently uncage |  |  |  | relatively stable under the cell culture condition | 120 s | ≤ 2 min | higher percentage of ruffled cell; also recorded: greater percentage of cells displaying ruffling | very little luciferase expression | only a minimal level of luciferase was induced
